Experimental data taken from US20120258980A1, “Antibacterial Agent for Drug-Resistant Bacteria, Method for Screening for Same, and Use of Same” (priority 2009, published 2012).
Values after ≈ are worked out from the molar mass of the structure shown.

How the values were obtained:
[1] = system: MRSA, CA-MRSA and MSSA of Staphylococcus aureus; assay: MIC measurement, Test Example 4 (MRSA, CA-MRSA and MSSA strains); type: cell-based
Method: (§1) Each of the bacterial strains listed in Table 1-1 was shake-cultured at 37° C. overnight in 4 mL of a medium (Tryptical Soy Broth: TSB, product of Becton Dickinson and Company). FDA209P was used as a control.
(§2) After completion of culturing, the resultant culture was suspended in a cation-adjusted Mueller Hinton Broth (CAMHB, product of Becton Dickinson and Company). Then, the obtained bacterial culture was adjusted in absorbance with the CAMHB so that the absorbance at 578 nm of the bacterial culture was adjusted to 0.3 measured by an absorption spectrometer. In addition, the resultant bacterial culture was 500-fold diluted with the CAMHB.
(§3) Each of the 500-fold diluted, pre-cultured bacterial cultures was added at 50 μL/well to the CAMHB containing the quinolones and the nybomycins at various concentrations (50 μL/well), followed by statically culturing at 37° C. overnight.
(§4) After completion of culturing, the growth of the bacteria was visually determined based on turbidity to measure MIC in each bacterial strain.
Glycopeptides, imipenem, quinolones and nybomycins were studied for antibacterial activity against the bacterial strains listed in Table 2-1; i.e., MRSA, CA-MRSA and MSSA of Staphylococcus aureus.

[2] = system: methicillin-susceptible S. aureus (MSSA), MRSA and mutants thereof; assay: MIC measurement, Test Example 3 (MSSA, MRSA and sequential gyrA/grlA quinolone-resistant mutants); type: cell-based, Staphylococcus aureus
Description: That is, the first-step quinolone-resistant mutants are bacterial strains which are the same as their parent strains (clinical isolates) except that the genes shown in the corresponding parts of Table 1-1 are mutated. The second-step quinolone-resistant mutants are bacterial strains which are the same as the first-step quinolone-resistant mutants except that the genes shown in the corresponding parts of Table 1-1 are further mutated. The third-step quinolone-resistant mutants are bacterial strains which are the same as the second-step quinolone-resistant mutants except that the genes shown in the corresponding parts of Table 1-1 are further mutated. The fourth-step quinolone-resistant strain is a bacterial strain which is the same as the third-step quinolone-resistant mutant bacteria except that the gene shown in the corresponding part of Table 1-1 is further mutated.
as §1, §2, §3, §4

Enterococcus faecalis = assay: MIC measurement, Test Example 6 (enterococcus); type: cell-based
Method: as §1, §2, §3, §4
Quinolones and nybomycins were evaluated for antibacterial activity against Enterococcus faecalis shown in Table 6, wherein the other strains than NCTC12201 and NCTC12203 were subdivided from Shionogi & Co., Ltd (note that these strains are available also from the Department of Bacteriology, Juntendo University). The NCTC strains are both vancomycin-resistant E. faecalis and available from the National Collection of Type Cultures (NCTC).

## C[C@@H](O)[C@H]1C(=O)N2C(C(=O)O)=C(SCCN=CN)C[C@H]12 [IPM, imipenem]
[1]; Staphylococcus aureus, ATCC 29213 / MRSA / MSSA, ATCC 29213, MSSA
  MIC: < 0.03 µg/mL
[1]; Staphylococcus aureus, COL, MRSA
  MIC: 64 µg/mL (≈ 214 µM)
[1]; Staphylococcus aureus, FDA209P / MRSA / MSSA, FDA209P, MSSA
  MIC: < 0.03 µg/mL
[1]; Staphylococcus aureus, ISA12-1, MRSA
  MIC: 16 µg/mL (≈ 53.4 µM)
[1]; Staphylococcus aureus, ISA12-2, MRSA
  MIC: 16 µg/mL (≈ 53.4 µM)
[1]; Staphylococcus aureus, ISA35-1, MRSA
  MIC: 1 µg/mL (≈ 3.34 µM)
[1]; Staphylococcus aureus, ISA37-1, MSSA
  MIC: 0.125 µg/mL (≈ 0.418 µM)
[1]; Staphylococcus aureus, ISA49-1, MSSA
  MIC: 0.25 µg/mL (≈ 0.835 µM)
[1]; Staphylococcus aureus, ISA51-1, MSSA
  MIC: 0.25 µg/mL (≈ 0.835 µM)
[1]; Staphylococcus aureus, ISA56-3, MRSA
  MIC: 16 µg/mL (≈ 53.4 µM)
[1]; Staphylococcus aureus, ISA58-1, MRSA
  MIC: 0.125 µg/mL (≈ 0.418 µM)
[1]; Staphylococcus aureus, ISA62-1, MRSA
  MIC: 2 µg/mL (≈ 6.68 µM)
[1]; Staphylococcus aureus, ISA73-1, MSSA
  MIC: 0.25 µg/mL (≈ 0.835 µM)
[1]; Staphylococcus aureus, KBSA32, MRSA
  MIC: 0.25 µg/mL (≈ 0.835 µM)
[1]; Staphylococcus aureus, KBSA34, MRSA
  MIC: 0.25 µg/mL (≈ 0.835 µM)
[1]; Staphylococcus aureus, KBSA72, MRSA
  MIC: 0.125 µg/mL (≈ 0.418 µM)
[1]; Staphylococcus aureus, KBSA96, MRSA
  MIC: 0.25 µg/mL (≈ 0.835 µM)
[1]; Staphylococcus aureus, KBSA171, MRSA
  MIC: 0.25 µg/mL (≈ 0.835 µM)
[1]; Staphylococcus aureus, KSA24, MRSA
  MIC: 0.5 µg/mL (≈ 1.67 µM)
[1]; Staphylococcus aureus, KSA31, MRSA
  MIC: 0.125 µg/mL (≈ 0.418 µM)
[1]; Staphylococcus aureus, KSA36, MRSA
  MIC: 0.5 µg/mL (≈ 1.67 µM)
[1]; Staphylococcus aureus, MRSA / MSSA / NCTC 8325, NCTC 8325, MSSA
  MIC: ≤ 0.063 µg/mL
[1]; Staphylococcus aureus, MRSA / MSSA / USA300, USA300 FPR3757, CA-MRSA
  MIC: 2 µg/mL (≈ 6.68 µM)
[1]; Staphylococcus aureus, MW2, CA-MRSA
  MIC: 2 µg/mL (≈ 6.68 µM)
[1]; Staphylococcus aureus, N315, MRSA
  MIC: 8 µg/mL (≈ 26.7 µM)

## Cl.O=C(O)c1cn(C2CC2)c2cc(N3CCNCC3)c(F)cc2c1=O [CPFX, ciprofloxacin chloride]
[2]; MR5867-1, first-step quinolone-resistant mutant, grlA E84K
  MIC: 2 µg/mL
[2]; MR5867-2, second-step mutant, further gyrA S84L
  MIC: 32 µg/mL
[2]; MS5935-1, first-step quinolone-resistant mutant, grlA S80F
  MIC: 2 µg/mL
[2]; MS5935-2, second-step mutant, further gyrA S84L
  MIC: 32 µg/mL
[2]; MS5952-1, first-step quinolone-resistant mutant, grlA S80Y
  MIC: 2 µg/mL
[2]; MS5952-2, second-step mutant, further gyrA S84L
  MIC: 8 µg/mL
[2]; MS5952-3, third-step mutant, further grlA A116V
  MIC: 64 µg/mL
[1]; ISA12-1, MRSA
  MIC: 0.5 µg/mL
[1]; ISA35-1, MRSA
  MIC: 4 µg/mL
[1]; ISA51-1, MSSA
  MIC: 0.5 µg/mL
[1]; ISA58-1, MRSA
  MIC: 0.5 µg/mL
[1]; ISA73-1, MSSA
  MIC: 0.5 µg/mL
[1]; KBSA34, MRSA
  MIC: 0.5 µg/mL
[1]; KBSA72, MRSA
  MIC: 128 µg/mL
[1]; KBSA96, MRSA
  MIC: 32 µg/mL
[1]; KBSA171, MRSA
  MIC: 64 µg/mL
[1]; KSA24, MRSA
  MIC: 32 µg/mL
[1]; KSA31, MRSA
  MIC: 8 µg/mL
[1]; KSA36, MRSA
  MIC: 128 µg/mL
[1]; USA300 FPR3757, CA-MRSA
  MIC: 16 µg/mL
Enterococcus faecalis; E. faecalis 36-15672, quinolone-susceptible enterococci
  MIC: 1 µg/mL
Enterococcus faecalis; E. faecalis 36-15673, quinolone-susceptible enterococci
  MIC: 1 µg/mL
Enterococcus faecalis; E. faecalis 36-15678, quinolone-susceptible enterococci
  MIC: 1 µg/mL
Enterococcus faecalis; E. faecalis 36-15686, quinolone-resistant enterococci
  MIC: 128 µg/mL
Enterococcus faecalis; E. faecalis 36-15688, quinolone-susceptible enterococci
  MIC: 1 µg/mL
Enterococcus faecalis; E. faecalis 36-15694, quinolone-resistant enterococci
  MIC: 32 µg/mL
Enterococcus faecalis; E. faecalis 36-15696, quinolone-susceptible enterococci
  MIC: 1 µg/mL
Enterococcus faecalis; E. faecalis 36-15703, quinolone-resistant enterococci
  MIC: 32 µg/mL
Enterococcus faecalis; E. faecalis 36-15716, quinolone-resistant enterococci
  MIC: 128 µg/mL
Enterococcus faecalis; E. faecalis 36-15718, quinolone-susceptible enterococci
  MIC: 1 µg/mL
Enterococcus faecalis; E. faecalis 36-15720, quinolone-susceptible enterococci
  MIC: 2 µg/mL
Enterococcus faecalis; E. faecalis 36-15722, quinolone-resistant enterococci
  MIC: 64 µg/mL
Enterococcus faecalis; E. faecalis 36-15726, quinolone-resistant enterococci
  MIC: 64 µg/mL
Enterococcus faecalis; E. faecalis 36-15730, quinolone-susceptible enterococci
  MIC: 2 µg/mL
Enterococcus faecalis; E. faecalis 36-15736, quinolone-susceptible enterococci
  MIC: 1 µg/mL
Enterococcus faecalis; E. faecalis 36-15741, quinolone-susceptible enterococci
  MIC: 2 µg/mL
Enterococcus faecalis; E. faecalis NCTC12201, vancomycin-resistant (VRE), quinolone-susceptible enterococci
  MIC: 1 µg/mL
Enterococcus faecalis; E. faecalis NCTC12203, vancomycin-resistant (VRE), quinolone-susceptible enterococci
  MIC: 1 µg/mL
